Measured values taken from US9980937B2, “Therapeutic agent for Alzheimer's disease” (NAGASAKI UNIVERSITY, priority 2014, dated 2018).

Key:
[1] = test system: neprilysin; test: neprilysin-dependent neutral endopeptidase activity of APP-H4 cell extract (suc-AAF-AMC coupled enzyme assay); format: cell-based, human; conditions: APP-H4 cells, 48 hr, 1 or 10 μM; activity without polyphenol derivative = 1 (FIG. 1)
Description: (§1) APP-H4 cells were seeded to a 6-well plate at a density of 12×10^4 cells/1.5 mL, and cultured in Dulbecco's modified Eagle's medium (DMEM; Nacalai Tesque, Inc.) added with 10% fetal bovine serum (FBS; Equitech-Bio, Inc. [Kerrville, Tex., USA]), 100 U/mL penicillin+100 μg/mL streptomycin (Nacalai Tesque, Inc.). After culture for 24 hr, the culture supernatant was removed, and the medium was exchanged with a medium with reduced use amount of serum, Opti-MEM (registered trade mark) I Reduced Serum Medium (Life Technologies Corporation, Carlsbad, Calif., USA) (1 mL). A polyphenol derivative (1 μL) to be the test target was added, and the mixture was further cultured for 48 hr. After culture, the culture supernatant was recovered in a tube (total amount 1.5 mL), centrifuged at 4,000×g/4° C./10 min to remove dead cells, and the supernatant (800 μL) was placed in a new tube. The culture supernatant was preserved at −80° C. before sample preparation. The cells were washed twice with ice-cooled phosphate-buffered saline (PBS). Thereafter, the cells were scraped from the plate using a Cell Scraper. The cells were recovered in a 1.5 mL tube and centrifuged at 4,000×g/4° C./10 min. The supernatant was removed and the cells were preserved at −80° C. before sample preparation. The frozen cells were lysed in 40 μL of solubilization buffer containing 1% Triton X-100, protease inhibitor cocktail Complete™ EDTA-free (Roche) and 50 mM Tris-HCl on ice. The cell lysate was incubated on ice for 60 min, centrifuged at 4° C., 21,900×g for 30 min, and the supernatant was recovered and used as a solubilization cell extract.
The total protein concentration of the cell extract was determined by a BCA protein assay kit (Takara) by using BSA as the standard solution. The final concentration of the test compound used was 1 μM or 10 μM, and quantification was performed using each solvent as a control.
The neprilysin-dependent neutral endopeptidase activity of the cell extract was measured fluorescence quantitatively by an indirect coupled enzyme assay method. […] Total 50 μL of the reaction mixture was prepared such that the final concentration was substrate 0.1 mM suc-AAF-AMC, protein in the cell extract 1-6 μg, 100 mM MES buffer (pH 6.5). With the time of addition of the substrate as the start of the reaction, the mixture was reacted at 37° C. for 1 hr, and Phe-AMC was cut out from the substrate by neutral endopeptidase. […] The mixture was reacted at 37° C. for 30 min, and Phe (phenylalanine) residue was cut out from Phe-AMC by aminopeptidase.

[2] = coefficient of partition for octanol, in accordance with Fudouji et al. 2009; cited from earlier work
[3] = test system: neprilysin, α-secretase, β-secretase; test: overall conclusion on modulation of neprilysin, α-secretase and β-secretase (Example 1); format: cell-based, human; conditions: conclusion from the results of Example 1
Description: as §1
The neprilysin-dependent neutral endopeptidase activity of the cell extract was measured fluorescence quantitatively by an indirect coupled enzyme assay method. As a neutral endopeptidase substrate, succinyl-Ala-Ala-Phe-7-amino-4-methylcoumarin (suc-AAF-AMC) (1-1315; Bachem) was used. Total 50 μL of the reaction mixture was prepared such that the final concentration was substrate 0.1 mM suc-AAF-AMC, protein in the cell extract 1-6 μg, 100 mM MES buffer (pH 6.5). With the time of addition of the substrate as the start of the reaction, the mixture was reacted at 37° C. for 1 hr, and Phe-AMC was cut out from the substrate by neutral endopeptidase. Then, to the reaction mixture was added a solution (2.5 μL) containing 0.1 mg (0.4 unit equivalent)/mL leucine aminopeptidase (L-5006; Sigma-Aldrich), and 0.2 mM phosphoramidon (4082; Peptide Institute). The mixture was reacted at 37° C. for 30 min, and Phe (phenylalanine) residue was cut out from Phe-AMC by aminopeptidase. Using microplate spectrometer Infinite M-1000 (Tecan), the fluorescence intensity of free AMC was measured by measuring at an excitation wavelength 390 nm and a fluorescence wavelength 460 nm on a half-well size 96-well black plate (#3695; Corning). The neprilysin-dependent neutral endopeptidase activity was determined based on a decrease in the activity due to 10 μM thiorphan (T-6031; Sigma-Aldrich) as a neprilysin specific inhibitor.
After thawing from −80° C., the aforementioned culture supernatant was mixed with 6×SDS-polyacrylamide gel electrophoresis (SDS-PAGE) sample buffer (Nacalai Tesque, Inc.) at a ratio of 5:1, boiled for 5 min, and used as a detection sample of APPsα which is a metabolite of APP by α-secretase and APPsβ which is a metabolite of APP by β-secretase in western blot analysis. […]

[4] = test system: neprilysin mRNA (MME gene); test: neprilysin mRNA expression (quantitative real-time PCR, MME gene); format: cell-based, human; conditions: standardized to GAPDH mRNA (FIG. 3)
Description: (§2) In the same manner as in the above-mentioned 2, total RNA was prepared using a High Pure RNA Isolation kit (Roche 11828665001) from the cells to be the test target cells, which were treated with each polyphenol derivative and cultured, and subjected to a reverse transcription reaction using PrimeScript RT-PCR kit (TaKaRaRR014A) to give a sample (cDNA) for real-time PCR.
(§3) The prepared sample, Premix Ex taq (Perfect Real Time) (TaKaRaRR039A) and a probe, and a primer were mixed in a tube (TaKaRa SC910A), and real-time PCR reaction (initial denaturation: 95° C. 30 sec, PCR reaction: 95° C. 5 sec, 60° C. 20 sec, 40 times) was performed by Smart Cycler II System machine (TaKaRa).
(§4) The 5′-terminus of the probe was modified by a fluorescent substance FAM, and the 3′-terminus was modified by a quencher substance TAMRA, respectively.

[5] = test system: ADAM17; test: α-secretase mRNA expression, ADAM17 (real-time PCR); format: cell-based, human; conditions: control = 1
Description: as §2, §3, §4

[6] = test system: neprilysin; test: neprilysin expression amount at protein level (western blot, APP-H4 cells); format: cell-based, human; conditions: 48 hr, standardized to β-actin (FIG. 2)
Description: as §1
The aforementioned cell extract was mixed with 6×SDS-polyacrylamide gel electrophoresis (SDS-PAGE) sample buffer (Nacalai Tesque, Inc.) at a ratio of 5:1, boiled for 5 min, and used as a detection sample of neprilysin, α-secretase and β-secretase proteins.
The PVDF membrane after transfer was washed with a wash buffer and immersed in a blocking buffer to prevent non-specific binding of the primary antibody, and a blocking reaction was performed at room temperature for 1 hr. […] The PVDF membrane after the reaction was washed with the wash buffer and the secondary antibody (horseradish peroxidase conjugated anti-mouse or anti-rabbit IgG (1:10,000; GE Healthcare UK Ltd.)) corresponding to the primary antibody was reacted at room temperature for 1 hr and detection was carried out using the ECL Select Western Blotting Detection Kit (GE Healthcare UK Ltd.).
The signal intensity of the band was quantified using a densitometer LAS-4000 (GE Healthcare UK Ltd.) and image analysis software Science Laboratory 2003 Image Gauge Version 4.23 (Fujifilm Holdings Corporation, Tokyo, Japan).

[7] = target: T1, β-secretase (Homo sapiens, UniProt P56817); test: β-secretase activity (APPsβ, western blot); format: cell-based; conditions: APP-H4 culture supernatant, APPsβ (FIG. 2)
T1 construct: endogenous in cells; host or cells: APP-H4 cells (culture supernatant analysed)
Description: as §1, with “extract. […]” for “extract.”
(§5) The signal intensity of the band was quantified using a densitometer LAS-4000 (GE Healthcare UK Ltd.) and image analysis software Science Laboratory 2003 Image Gauge Version 4.23 (Fujifilm Holdings Corporation, Tokyo, Japan). […]

[8] = test system: APP; test: extracellularly secreted APPsα/APPsβ ratio (western blot); format: cell-based, human; conditions: APP-H4 culture supernatant (FIG. 2)
Description: as §1
After thawing from −80° C., the aforementioned culture supernatant was mixed with 6×SDS-polyacrylamide gel electrophoresis (SDS-PAGE) sample buffer (Nacalai Tesque, Inc.) at a ratio of 5:1, boiled for 5 min, and used as a detection sample of APPsα which is a metabolite of APP by α-secretase and APPsβ which is a metabolite of APP by β-secretase in western blot analysis.
The PVDF membrane after transfer was washed with a wash buffer and immersed in a blocking buffer to prevent non-specific binding of the primary antibody, and a blocking reaction was performed at room temperature for 1 hr. Thereafter, it was reacted with a primary antibody (APPsα, anti-human APPsα mouse monoclonal antibody (2B3, Immuno-Biological Laboratories Co., Ltd., Gunma, Japan) (3 μg/mL); APPsβ, anti-APPsβ, rabbit polyclonal antibody, 1 μg/mL) to perform an antigen-antibody-reaction at 4° C. for not less than 16 hr. […]
as §5

T1 sequence (P56817 46-501): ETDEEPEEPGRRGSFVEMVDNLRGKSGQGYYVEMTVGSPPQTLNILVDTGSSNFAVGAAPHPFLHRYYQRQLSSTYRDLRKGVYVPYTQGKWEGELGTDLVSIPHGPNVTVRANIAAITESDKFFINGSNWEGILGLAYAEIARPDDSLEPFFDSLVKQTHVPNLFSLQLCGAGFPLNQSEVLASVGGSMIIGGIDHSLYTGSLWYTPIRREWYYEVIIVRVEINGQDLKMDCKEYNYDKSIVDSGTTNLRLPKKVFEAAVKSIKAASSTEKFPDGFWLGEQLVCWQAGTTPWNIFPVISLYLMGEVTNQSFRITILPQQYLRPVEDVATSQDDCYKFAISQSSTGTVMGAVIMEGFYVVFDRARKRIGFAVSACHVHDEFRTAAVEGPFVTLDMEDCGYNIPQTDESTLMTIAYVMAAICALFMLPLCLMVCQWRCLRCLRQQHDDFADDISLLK

In the case of `O=c1cc(-c2ccc(O)cc2)oc2cc(O)cc(O)c12` [Apigenin], the “neprilysin activity potentiating action” value [1] is reported as “about 1.5 times that of control”.
With `C=CCc1ccc(O)c(-c2ccc(O)c(CC=C)c2)c1` [Honokiol] the “neprilysin activity potentiating action” value [1] was “about 1.3 times that of control”.
In the case of `CC12CC[C@@H](C(C)(C)O)[C@H](C1)c1c(cc(O)c3c1O[C@H](c1cc(O)c(O)c(O)c1)[C@H](OC(=O)c1cc(O)c(O)c(O)c1)C3)O2` [NUP-6], the “log P octanol” value [2] is listed as 1.85.
In the case of `O=c1cc(-c2ccccc2)oc2cc(O)c(O)c(O)c12` [Baicalein], the “neprilysin activity potentiating action” value [1] is reported as “about 1.7 times that of control”.
For Amentoflavone, the “neprilysin activity potentiating action” value [1] was “about 2 times that of control”.
For `O=C(O)CCCCCCCCCCCCCCOC1CCc2c(c3c(c4c2O[C@H](c2cc(O)c(O)c(O)c2)[C@H](OC(=O)c2cc(O)c(O)c(O)c2)C4)OC(OCCCCCCCCCCCCCCC(=O)O)CC3)O1` (some centres unmarked) [NUP-E15-2], the “neprilysin activity potentiating action” value [1] was “about 1.5 times that of control”, the “modulator class (neprilysin / α-secretase / β-secretase)” value [3] was “triple modulator” and the “expression level of neprilysin at the mRNA level” value (from here on “expression level of neprilysin”) [4] was “about 7.9 times that of control”. The “ADAM17 expression at the mRNA level” value [5] was “about 3.7 times that of control”.
With `O=c1cc(-c2ccccc2)oc2cc(O)cc(O)c12` [Chrysin] the “neprilysin activity potentiating action” value [1] was “about 1.4 times that of control”.
In the case of `O=C(O[C@@H]1Cc2c(O)cc(O)cc2O[C@@H]1c1cc(O)c(O)c(O)c1)c1cc(O)c(O)c(O)c1` [EGCg, (−)-epigallocatechin-3-O-gallate, reference compound], the “log P octanol” value [2] is given as 1.00 and the “neprilysin activity potentiating action” value [1] is given as “about 1.5 times that of control”.
In the case of `CC1CCC2C(C1)c1c(c3c(c4c1OC(C)(C)C1CCC(C)CC41)O[C@H](c1cc(O)c(O)c(O)c1)[C@H](OC(=O)c1cc(O)c(O)c(O)c1)C3)OC2(C)C` (some centres unmarked) [NUP-11], the “log P octanol” value [2] is listed as >10, the “expression amount of neprilysin at the protein level” value [6] is listed as “about 3.3 times that of control” and the “β-secretase activity, remaining relative to control” value [7] is listed as “about 41 % that of control”. For the same compound, the “neprilysin activity potentiating action” value [1] was “about 3.5 times that of control”, the “extracellularly secreted APPsα/APPsβ ratio” value [8] was “about 2.0 times that of control” and the “modulator class (neprilysin / α-secretase / β-secretase)” value [3] was “double modulator”. The “expression level of neprilysin” value [4] was “about 4 times that of control” and the “ADAM17 expression at the mRNA level” value [5] was “about 2.4 times that of control”.
In the case of `C/C(=C\Cc1c(O)cc2c(c1O)C[C@@H](OC(=O)c1cc(O)c(O)c(O)c1)[C@@H](c1cc(O)c(O)c(O)c1)O2)CCCC(C)CCCC(C)CCCC(C)C` (some centres unmarked) [NUP-19], the “log P octanol” value [2] is listed as >10, the “expression amount of neprilysin at the protein level” value [6] is listed as “about 3.2 times that of control” and the “β-secretase activity, remaining relative to control” value [7] is listed as “about 37 % that of control”. The “neprilysin activity potentiating action” value [1] was “about 2.7 times that of control”, the “extracellularly secreted APPsα/APPsβ ratio” value [8] was “about 1.4 times that of control” and the “modulator class (neprilysin / α-secretase / β-secretase)” value [3] was “double modulator”. The “expression level of neprilysin” value [4] was “about 2.1 times that of control” and the “ADAM17 expression at the mRNA level” value [5] was “about 1.3 times that of control”.
For `O=c1c(O)c(-c2ccc(O)cc2)oc2cc(O)cc(O)c12` [Kaempferol], the “neprilysin activity potentiating action” value [1] was “about 1.5 times that of control”.
